# Data from PubChem BioAssay AID1745844 (Carcinogenic Potency Database (CPDB), 2022).
# Active and inactive are the calls of the source. The rule behind the calls is not given here.
# Tested on: rodent lifetime carcinogenesis bioassay, tumor incidence TD50
# Test: carcinogenic potency in animals, long-term in vivo studies, CPDB compilation (AID 1745844)
compound,measurement,setting,value
CCCCCCCCCCCCN(C)N=O,TD50,"rat, strain Fischer 344, females, by gavage, site: lung, lesion: one or several types, types not named, dosed 30 weeks, study length 65 weeks",1.32 mg/kg/day
same,TD50,"rat, strain Fischer 344, females, by gavage, site: urinary bladder, lesion: one or several types, types not named, dosed 30 weeks, study length 65 weeks",0.656 mg/kg/day
same,TD50,"rat, strain Fischer 344, males, by gavage, site: all sites, lesion: leukemia, dosed 30 weeks, study length 112 weeks",0.97 mg/kg/day
same,carcinogen call,"rat, strain Fischer 344, males, by gavage, site: any site (literature study), lesion: several types, types named in the paper, dosed 30 weeks, study length 112 weeks",positive
same,TD50,"rat, strain Fischer 344, males, by gavage, site: forestomach, lesion: carcinoma, dosed 30 weeks, study length 112 weeks",5.07 mg/kg/day
same,TD50,"rat, strain Fischer 344, males, by gavage, site: forestomach, lesion: papilloma, dosed 30 weeks, study length 112 weeks",13.9 mg/kg/day
same,TD50,"rat, strain Fischer 344, males, by gavage, site: liver, lesion: hepatocellular carcinoma, dosed 30 weeks, study length 112 weeks",8.98 mg/kg/day
same,TD50,"rat, strain Fischer 344, males, by gavage, site: lung, lesion: adenocarcinoma, dosed 30 weeks, study length 112 weeks",6.54 mg/kg/day
same,TD50,"rat, strain Fischer 344, males, by gavage, site: lung, lesion: adenoma, dosed 30 weeks, study length 112 weeks",28.5 mg/kg/day
same,TD50,"rat, strain Fischer 344, males, by gavage, site: pancreatic islets, lesion: islet-cell carcinoma, dosed 30 weeks, study length 112 weeks",2.75 mg/kg/day
same,carcinogen call,"rat, strain Fischer 344, males, by gavage, site: urinary bladder, lesion: transitional-cell carcinoma, dosed 28 weeks, study length 66 weeks",positive
same,TD50,"rat, strain Fischer 344, males, by gavage, site: urinary bladder, lesion: transitional-cell carcinoma, dosed 30 weeks, study length 112 weeks",0.487 mg/kg/day
[K+],TD50,"rat, strain F344/DuCrj, females, in drinking water, site: submandibular salivary gland, lesion: squamous-cell carcinoma, dosed 104 weeks, study length 104 weeks",560 mg/kg/day
same,TD50,"rat, strain F344/DuCrj, females, in drinking water, site: uterus, lesion: endometrial stromal polyp, dosed 104 weeks, study length 104 weeks",204 mg/kg/day (inactive)
same,TD50,"rat, strain F344/DuCrj, males, in drinking water, site: submandibular salivary gland, lesion: squamous-cell carcinoma, dosed 104 weeks, study length 104 weeks",363 mg/kg/day
CN(C)CCOC(C)(c1ccccc1)c1ccccn1 (stereo unspecified),TD50,"mouse, strain B6C3F1, females, in feed, site: liver, lesion: hepatocellular adenoma, dosed 104 weeks, study length 104 weeks",633 mg/kg/day
same,TD50,"mouse, strain B6C3F1, females, in feed, site: lung, lesion: alveolar/bronchiolar adenoma, dosed 65 weeks, study length 65 weeks",78.7 mg/kg/day
same,TD50,"mouse, strain B6C3F1, females, in feed, site: lung, lesion: several types, types named in the paper, dosed 104 weeks, study length 104 weeks",170 mg/kg/day
same,TD50,"mouse, strain B6C3F1, females, in feed, site: thyroid gland, lesion: follicular-cell adenoma, dosed 104 weeks, study length 104 weeks",740 mg/kg/day
same,TD50,"mouse, strain B6C3F1, females, in feed, site: thyroid gland, lesion: follicular-cell tumor, dosed 104 weeks, study length 104 weeks",672 mg/kg/day
same,TD50,"mouse, strain B6C3F1, males, in feed, site: liver, lesion: hepatocellular adenoma, dosed 65 weeks, study length 65 weeks",77.8 mg/kg/day
same,TD50,"mouse, strain B6C3F1, males, in feed, site: liver, lesion: hepatocellular adenoma, dosed 104 weeks, study length 104 weeks",144 mg/kg/day
same,TD50,"mouse, strain B6C3F1, males, in feed, site: liver, lesion: several types, types named in the paper, dosed 104 weeks, study length 104 weeks",125 mg/kg/day
same,TD50,"mouse, strain B6C3F1, males, in feed, site: lung, lesion: alveolar/bronchiolar adenoma, dosed 65 weeks, study length 65 weeks",3180 mg/kg/day
same,TD50,"mouse, strain B6C3F1, males, in feed, site: thyroid gland, lesion: follicular-cell adenoma, dosed 104 weeks, study length 104 weeks",273 mg/kg/day
same,carcinogen call,"rat, strain Fischer 344, females, in feed, site: liver, lesion: several types, types named in the paper, dosed 104 weeks, study length 104 weeks",negative (inactive)
same,TD50,"rat, strain Fischer 344, males, in feed, site: all sites, lesion: mononuclear-cell leukemia, dosed 104 weeks, study length 104 weeks",271 mg/kg/day
same,TD50,"rat, strain Fischer 344, males, in feed, site: liver, lesion: hepatocellular adenoma, dosed 65 weeks, study length 65 weeks",469 mg/kg/day
same,TD50,"rat, strain Fischer 344, males, in feed, site: liver, lesion: hepatocellular adenoma, dosed 104 weeks, study length 104 weeks",3270 mg/kg/day
same,TD50,"rat, strain Fischer 344, males, in feed, site: liver, lesion: hepatocellular carcinoma, dosed 104 weeks, study length 104 weeks",3270 mg/kg/day
same,TD50,"rat, strain Fischer 344, males, in feed, site: liver, lesion: several types, types named in the paper, dosed 104 weeks, study length 104 weeks",1610 mg/kg/day
